PubChem BioAssay AID1259407 (Chemical Carcinogenesis Research Information System (CCRIS), 2018)
The source made the active and inactive calls. How the calls were made is not given here.

System: CCRIS mutagenicity, Ames/micronucleus/aberration tests
Test: CCRIS mutagenicity studies
[1] = Test System: AMES SALMONELLA TYPHIMURIUM, Strain/Indicator: TA100, Metabolic Activation: NONE, Method: PREINCUBATION
[2] = Test System: AMES SALMONELLA TYPHIMURIUM, Strain/Indicator: TA1535, Metabolic Activation: NONE, Method: PREINCUBATION
[3] = Test System: AMES SALMONELLA TYPHIMURIUM, Strain/Indicator: TA98, Metabolic Activation: NONE, Method: STANDARD PLATE
[4] = Test System: AMES SALMONELLA TYPHIMURIUM, Strain/Indicator: TA98, Metabolic Activation: RAT, LIVER, S-9, AROCLOR 1254, Method: STANDARD PLATE
[5] = Test System: AMES SALMONELLA TYPHIMURIUM, Strain/Indicator: TA100, Metabolic Activation: NONE, Method: STANDARD PLATE
[6] = Test System: AMES SALMONELLA TYPHIMURIUM, Strain/Indicator: TA100, Metabolic Activation: RAT, LIVER, S-9, AROCLOR 1254, Method: STANDARD PLATE
[7] = Test System: AMES SALMONELLA TYPHIMURIUM, Strain/Indicator: TA102, Metabolic Activation: NONE, Method: STANDARD PLATE
[8] = Test System: AMES SALMONELLA TYPHIMURIUM, Strain/Indicator: TA97, Metabolic Activation: NONE, Method: STANDARD PLATE
[9] = Test System: AMES SALMONELLA TYPHIMURIUM, Strain/Indicator: TA97, Metabolic Activation: RAT, LIVER, S-9, AROCLOR 1254, Method: STANDARD PLATE
[10] = Test System: AMES SALMONELLA TYPHIMURIUM, Strain/Indicator: TA102, Metabolic Activation: RAT, LIVER, S-9, AROCLOR 1254, Method: STANDARD PLATE

CC(C)NCC(O)c1ccc2ccccc2c1 (stereo not given)
mutagenic call (Test System: AMES SALMONELLA TYPHIMURIUM, Strain/Indicator: TA98, Metabolic Activation: NONE): inactive; negative | mutagenic call (Test System: AMES SALMONELLA TYPHIMURIUM, Strain/Indicator: TA98, Metabolic Activation: RAT, LIVER, S-9, AROCLOR 1254): inactive; negative | mutagenic call (Test System: AMES SALMONELLA TYPHIMURIUM, Strain/Indicator: TA100, Metabolic Activation: NONE): inactive; negative | mutagenic call (Test System: AMES SALMONELLA TYPHIMURIUM, Strain/Indicator: TA100, Metabolic Activation: RAT, LIVER, S-9, AROCLOR 1254): inactive; negative | mutagenic call (Test System: AMES SALMONELLA TYPHIMURIUM, Strain/Indicator: TA1535, Metabolic Activation: NONE): inactive; negative | mutagenic call (Test System: AMES SALMONELLA TYPHIMURIUM, Strain/Indicator: TA1535, Metabolic Activation: RAT, LIVER, S-9, AROCLOR 1254): inactive; negative | mutagenic call (Test System: AMES SALMONELLA TYPHIMURIUM, Strain/Indicator: TA1537, Metabolic Activation: NONE): inactive; negative | mutagenic call (Test System: AMES SALMONELLA TYPHIMURIUM, Strain/Indicator: TA1537, Metabolic Activation: RAT, LIVER, S-9, AROCLOR 1254): inactive; negative

CCC[CH2][Sn]([CH2]CCC)([CH2]CCC)[O][Sn]([CH2]CCC)([CH2]CCC)[CH2]CCC
mutagenic call (Test System: AMES SALMONELLA TYPHIMURIUM, Strain/Indicator: TA97, Metabolic Activation: HAMSTER, LIVER, S-9, AROCLOR 1254 (10 OR 30%), Method: PREINCUBATION): inactive; negative | mutagenic call (Test System: AMES SALMONELLA TYPHIMURIUM, Strain/Indicator: TA97, Metabolic Activation: NONE, Method: PREINCUBATION): inactive; negative | mutagenic call (Test System: AMES SALMONELLA TYPHIMURIUM, Strain/Indicator: TA97, Metabolic Activation: RAT, LIVER, S-9, AROCLOR 1254 (10 OR 30%), Method: PREINCUBATION): inactive; negative | mutagenic call (Test System: AMES SALMONELLA TYPHIMURIUM, Strain/Indicator: TA98, Metabolic Activation: HAMSTER, LIVER, S-9, AROCLOR 1254 (10 OR 30%), Method: PREINCUBATION): inactive; negative | mutagenic call (Test System: AMES SALMONELLA TYPHIMURIUM, Strain/Indicator: TA98, Metabolic Activation: NONE, Method: PREINCUBATION): inactive; negative | mutagenic call (Test System: AMES SALMONELLA TYPHIMURIUM, Strain/Indicator: TA98, Metabolic Activation: NONE, Method: SUSPENSION/PLATE): inactive; negative | mutagenic call (Test System: AMES SALMONELLA TYPHIMURIUM, Strain/Indicator: TA98, Metabolic Activation: RAT, LIVER, S-9, AROCLOR 1254 (10 OR 30%), Method: PREINCUBATION): inactive; negative | mutagenic call (Test System: AMES SALMONELLA TYPHIMURIUM, Strain/Indicator: TA100, Metabolic Activation: HAMSTER, LIVER, S-9, AROCLOR 1254 (10 OR 30%), Method: PREINCUBATION): inactive; negative | mutagenic call [1]: inactive; negative | mutagenic call (Test System: AMES SALMONELLA TYPHIMURIUM, Strain/Indicator: TA100, Metabolic Activation: NONE, Method: SUSPENSION/PLATE): inactive; negative | mutagenic call (Test System: AMES SALMONELLA TYPHIMURIUM, Strain/Indicator: TA100, Metabolic Activation: RAT, LIVER, S-9, AROCLOR 1254 (10 OR 30%), Method: PREINCUBATION): inactive; negative | mutagenic call (Test System: AMES SALMONELLA TYPHIMURIUM, Strain/Indicator: TA1535, Metabolic Activation: HAMSTER, LIVER, S-9, AROCLOR 1254 (10 OR 30%), Method: PREINCUBATION): inactive; negative | mutagenic call [2]: inactive; negative | mutagenic call (Test System: AMES SALMONELLA TYPHIMURIUM, Strain/Indicator: TA1535, Metabolic Activation: RAT, LIVER, S-9, AROCLOR 1254 (10 OR 30%), Method: PREINCUBATION): inactive; negative

C[C@]12CC[C@H](O)C[C@@H]1CC[C@@H]1[C@@H]2CC[C@]2(C)NC(=O)CC[C@@H]12
mutagenic call [3]: inactive; negative | mutagenic call [4]: inactive; negative | mutagenic call [5]: inactive; negative | mutagenic call [6]: inactive; negative | mutagenic call (Test System: AMES SALMONELLA TYPHIMURIUM, Strain/Indicator: TA1535, Metabolic Activation: NONE, Method: STANDARD PLATE): inactive; negative | mutagenic call (Test System: AMES SALMONELLA TYPHIMURIUM, Strain/Indicator: TA1535, Metabolic Activation: RAT, LIVER, S-9, AROCLOR 1254, Method: STANDARD PLATE): inactive; negative | mutagenic call (Test System: AMES SALMONELLA TYPHIMURIUM, Strain/Indicator: TA1537, Metabolic Activation: NONE, Method: STANDARD PLATE): inactive; negative | mutagenic call (Test System: AMES SALMONELLA TYPHIMURIUM, Strain/Indicator: TA1537, Metabolic Activation: RAT, LIVER, S-9, AROCLOR 1254, Method: STANDARD PLATE): inactive; negative

O=NN1CCOC(O)C1 (stereo not given)
mutagenic call [1]: active; positive | mutagenic call [2]: active; positive | mutagenic call (Test System: AMES SALMONELLA TYPHIMURIUM, Strain/Indicator: TA1535, Metabolic Activation: RAT, LIVER, S-9, AROCLOR 1254, Method: PREINCUBATION): active; positive

C[n+]1ccc(-c2cc[n+](C)cc2)cc1
mutagenic call (End Point: IN VIVO MICRONUCLEUS, Test System: BONE MARROW POLYCHROMATIC ERYTHROCYTES, Species: RAT, Strain/Sex: SPRAGUE DAWLEY/MALE, Route: DERMAL): active; positive; maximal response at 48 hr | mutagenic call [7]: inactive; negative | mutagenic call (Test System: AMES SALMONELLA TYPHIMURIUM, Strain/Indicator: TA2638, Metabolic Activation: NONE, Method: STANDARD PLATE): inactive; negative | mutagenic call (Test System: CHINESE HAMSTER G10, Strain/Indicator: G10 (GPT)/6-THIOGUANINE, Metabolic Activation: NONE): inactive; negative | mutagenic call (Test System: CHINESE HAMSTER G12, Strain/Indicator: G12 (GPT)/6-THIOGUANINE, Metabolic Activation: NONE): inactive; negative | mutagenic call (Test System: CHINESE HAMSTER V-79, Strain/Indicator: V-79 (HPRT)/6-THIOGUANINE, Metabolic Activation: NONE): inactive; negative | mutagenic call (Test System: E. COLI, Strain/Indicator: WP2 (PKM101), Metabolic Activation: NONE, Method: STANDARD PLATE): inactive; negative | mutagenic call (Test System: E. COLI, Strain/Indicator: WP2 UVRA (PKM101), Metabolic Activation: NONE, Method: STANDARD PLATE): inactive; negative

Clc1cccnc1Cl
mutagenic call [8]: inactive; negative | mutagenic call [9]: active; positive | mutagenic call [3]: inactive; negative | mutagenic call [4]: inactive; negative | mutagenic call [5]: inactive; negative | mutagenic call [7]: inactive; negative | mutagenic call [10]: inactive; negative

ClCc1ccccn1
mutagenic call [8]: inactive; negative | mutagenic call [9]: inactive; negative | mutagenic call [3]: inactive; negative | mutagenic call [4]: inactive; negative | mutagenic call [5]: active; positive | mutagenic call [6]: active; positive | mutagenic call [7]: inactive; negative | mutagenic call [10]: inactive; negative | mutagenic call (Test System: CHINESE HAMSTER OVARY, Strain/Indicator: CHO-K1-BH4 (HGPRT)/6-THIOGUANINE, Metabolic Activation: NONE): active; positive | mutagenic call (Test System: CHINESE HAMSTER OVARY, Strain/Indicator: CHO-K1-BH4 (HGPRT)/6-THIOGUANINE, Metabolic Activation: S-9): inactive; negative

COc1cc(N=Nc2ccc(N)cc2)c(C)cc1N=Nc1c(S(=O)(=O)O)cc2ccc(N)cc2c1O
mutagenic call [3]: inactive; negative | mutagenic call [4]: active; positive | mutagenic call [5]: inactive; negative | mutagenic call [6]: active; positive | mutagenic call (Test System: AMES SALMONELLA TYPHIMURIUM, Strain/Indicator: TA1538, Metabolic Activation: NONE, Method: STANDARD PLATE): inactive; negative | mutagenic call (Test System: AMES SALMONELLA TYPHIMURIUM, Strain/Indicator: TA1538, Metabolic Activation: RAT, LIVER, S-9, AROCLOR 1254, Method: STANDARD PLATE): active; positive

O=C1c2ccccc2-c2c1ccc1ccccc21
mutagenic call [6]: active; positive
